The values below come from patent US11453681B2, “Substituted eneoxindoles and uses thereof” (Gilead Sciences, Inc., priority 2019, dated 2022).

In this test the target is human HPK1 (MAP4K1) (Homo sapiens (Human), UniProt Q92918). The experiment in a line: HPK1 IC50 Assay. It is filed as biochemical. The conditions noted are these: recombinant HPK1 kinase domain 0.15 nM, synthetic peptide substrate STK S1, 3 hours at 25° C., time-resolved fluorescence energy transfer; geometric mean of multiple experiments. On the procedure: The enzymatic activity of human HPK1 (MAP4K1) was monitored in a biochemical assay in the presence or absence of compounds and using a synthetic peptide substrate. An increase in phosphorylation of the peptide by HPK1 was indicative of its kinase activity.
human HPK1 (MAP4K1), sequence (Q92918 17-274): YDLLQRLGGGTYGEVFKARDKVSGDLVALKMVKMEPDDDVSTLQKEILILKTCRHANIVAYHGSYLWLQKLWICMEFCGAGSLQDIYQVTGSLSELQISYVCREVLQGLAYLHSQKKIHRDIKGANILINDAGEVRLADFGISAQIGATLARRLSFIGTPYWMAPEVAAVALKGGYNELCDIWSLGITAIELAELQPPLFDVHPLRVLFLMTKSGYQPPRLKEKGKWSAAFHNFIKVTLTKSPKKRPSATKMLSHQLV
Recombinant HPK1 kinase domain produced via baculovirus infection of insect cells was obtained from Proteros (Proteros Biostructures #PR-0322) and was pre-activated in the presence of 2 mM ATP (Sigma-Aldrich, cat #GE27-2056-01) and 2 mM magnesium chloride for 16 hours at 4° C. The protein reaction mixture was then loaded to a desalting column (Thermo Fisher Scientific, Cat #89889) to remove excess ATP. HPK1 was eluted with buffer containing 20 mM Tris (2-Amino-2-(hydroxymethyl)propane-1,3-diol) pH 8.0, 150 mM NaCl, 2 mM dithiothreitol and 5% glycerol, and was frozen at −80° C. for later use. HPK1 dual phosphorylation was confirmed by mass spectrometry.
Ten nanoliters of test compounds dissolved in DMSO at various concentrations were dispensed into a 384-well ProxiPlate (PerkinElmer #6008289). Five microliters of a solution of recombinant HPK1 diluted in HPK1 kinase assay buffer (50 mM BES [N,N-Bis(2-hydroxyethyl)-2-aminoethanesulfonic acid], pH 7.0; 10 mM magnesium chloride; 0.01% Triton X-100; 1 mM dithiothreitol; 0.01% bovine serum albumin; 0.1 mM sodium orthovanadate) was added to the compound-containing plate and was incubated for 15 minutes at 25° C. Five microliters of a mixture of ATP (Sigma-Aldrich #A6559) and peptide substrate STK Si (Cisbio #61ST1BLC) diluted in HPK1 kinase assay buffer was then added to start the reaction. Final concentrations were 0.15 nM for HPK1, […], and 1 […]. The reaction mixture was incubated at 25° C. for 3 hours and was stopped with the addition of 10 μl of an EDTA (Ethylenediaminetetraacetic acid)-containing detection buffer (Cisbio #62SDBRDF) supplemented with Europium cryptate-labeled anti-phospho-serine/threonine antibodies (Cisbio #62ST1PEJ) and XL665-labeled streptavidin (Cisbio #610SAXLG). The mixture was incubated for 16 hours at room temperature and peptide phosphorylation was measured by time-resolved fluorescence energy transfer (665 nm/620 nm) on an Envision plate reader (PerkinElmer).
Data in Table 1 were normalized based on positive (staurosporine) and negative (DMSO) controls. Least squares curve fittings were performed using a four-parameter variable slope nonlinear regression model. IC50 is defined as the concentration of compound required to inhibit 50% of maximum phosphorylation. IC50 values from multiple experiments were averaged by geometric mean and the standard deviation was calculated.
The term IC50 denotes the midpoint of a concentration-inhibition curve. As for `Cc1c(-c2ccc3c(c2)C(=Cc2cccs2)C(=O)N3)cnc2c1NCCO2` (racemic) [Compound C19, (E and Z)-5-(8-methyl-2,3-dihydro-1H-pyrido[2,3-b][1,4]oxazin-7-yl)-3-(thiophen-2-ylmethylene)indolin-2-one], the IC50 was 1880 pM. For `CCN(CC)CCNC(=O)c1c(C)[nH]c(/C=C2\C(=O)Nc3cc(F)c(-c4cnc5c(c4C)NCCO5)cc32)c1C` [Compound C1, (Z)—N-(2-(diethylamino)ethyl)-5-((6-fluoro-5-(8-methyl-2,3-dihydro-1H-pyrido[2,3-b][1,4]oxazin-7-yl)-2-oxoindolin-3-ylidene)methyl)-2,4-dimethyl-1H-pyrrole-3-carboxamide], the IC50 turned out to be 50 pM. For the molecule `Cc1ncc(/C=C2\C(=O)Nc3ccc(-c4ccc5c(c4C)NCCO5)cc32)[nH]1` [Compound C2, (Z)-3-((2-methyl-1H-imidazol-5-yl)methylene)-5-(5-methyl-3,4-dihydro-2H-benzo[b][1,4]oxazin-6-yl)indolin-2-one], the IC50 turned out to be 1950 pM. For `Cc1ncc(/C=C2\C(=O)Nc3cc(C)c(-c4cnc5c(c4C)NCCO5)cc32)[nH]1` [Compound C3, (Z)-6-methyl-3-((2-methyl-1H-imidazol-5-yl)methylene)-5-(8-methyl-2,3-dihydro-1H-pyrido[2,3-b][1,4]oxazin-7-yl)indolin-2-one], the IC50 was 190 pM. Take `Cc1ncc(/C=C2\C(=O)Nc3c(F)cc(-c4cnc5c(c4C)NCCO5)c(C)c32)[nH]1` [Compound C4, (Z)-7-fluoro-4-methyl-3-((2-methyl-1H-imidazol-5-yl)methylene)-5-(8-methyl-2,3-dihydro-1H-pyrido[2,3-b][1,4]oxazin-7-yl)indolin-2-one]: the IC50 was found to be 150 pM. Then `Cc1ncc(/C=C2\C(=O)Nc3c(F)cc(-c4cnc5c(c4)NCCO5)c(C)c32)[nH]1` [Compound C5, (Z)-5-(2,3-dihydro-H-pyrido[2,3-b][1,4]oxazin-7-yl)-7-fluoro-4-methyl-3-((2-methyl-TH-imidazol-5-yl)methylene)indolin-2-one], with 7430 pM.

On to `CCc1nc(C)c(/C=C2\C(=O)Nc3ccc(-c4cnc5c(c4C)NCCO5)cc32)[nH]1` [Compound C6, (Z)-3-((2-ethyl-4-methyl-1H-imidazol-5-yl)methylene)-5-(8-methyl-2,3-dihydro-1H-pyrido[2,3-b][1,4]oxazin-7-yl)indolin-2-one], for which the IC50 was 120 pM. With `Cc1ncc(/C=C2\C(=O)Nc3cc(Cl)c(-c4cnc5c(c4C)NCCO5)cc32)[nH]1` [Compound C7, (Z)-6-chloro-3-((2-methyl-1H-imidazol-5-yl)methylene)-5-(8-methyl-2,3-dihydro-1H-pyrido[2,3-b][1,4]oxazin-7-yl)indolin-2-one], the IC50 stood at 290 pM. For `Cc1ncc(/C=C2\C(=O)Nc3cc(F)c(-c4cnc5c(c4C)NCCO5)cc32)[nH]1` [Compound C8, (Z)-6-fluoro-3-((2-methyl-H-imidazol-5-yl)methylene)-5-(8-methyl-2,3-dihydro-1H-pyrido[2,3-b][1,4]oxazin-7-yl)indolin-2-one], the IC50 was 180 pM.

On to `CCN(CC)CCNC(=O)c1c(C)[nH]c(/C=C2\C(=O)Nc3c(F)cc(-c4cnc5c(c4C)NCCO5)cc32)c1C` [Compound C9, (Z)—N-(2-(diethylamino)ethyl)-5-((7-fluoro-5-(8-methyl-2,3-dihydro-1H-pyrido[2,3-b][1,4]oxazin-7-yl)-2-oxoindolin-3-ylidene)methyl)-2,4-dimethyl-1H-pyrrole-3-carboxamide], for which the IC50 worked out at 90 pM. With `Cc1ncc(/C=C2\C(=O)Nc3c(F)cc(-c4cnc5c(c4C)NCCO5)cc32)[nH]1` [Compound C10, (Z)-7-fluoro-3-((2-methyl-1H-imidazol-5-yl)methylene)-5-(8-methyl-2,3-dihydro-1H-pyrido[2,3-b][1,4]oxazin-7-yl)indolin-2-one], the half-inhibitory concentration (IC50) came to 220 pM.

Consider `C/C(=C1/C(=O)Nc2ccc(-c3cnc4c(c3C)NCCO4)cc21)c1cnc[nH]1` [Compound C11, (Z)-3-(1-(1H-imidazol-5-yl)ethylidene)-5-(8-methyl-2,3-dihydro-1H-pyrido[2,3-b][1,4]oxazin-7-yl)indolin-2-one], for which the IC50 came to 440 pM. On to `Cc1c(-c2cc(F)c3c(c2C)/C(=C/c2cc(C#N)c[nH]2)C(=O)N3)cnc2c1NCCO2` [Compound C12, (Z)-5-((7-fluoro-4-methyl-5-(8-methyl-2,3-dihydro-1H-pyrido[2,3-b][1,4]oxazin-7-yl)-2-oxoindolin-3-ylidene)methyl)-1H-pyrrole-3-carbonitrile], for which the 50% inhibitory concentration (IC50) was found to be 670 pM. As for `Cc1c[nH]c(/C=C2\C(=O)Nc3c(F)cc(-c4cnc5c(c4C)NCCO5)c(C)c32)c1` [Compound C13, (Z)-7-fluoro-4-methyl-3-((4-methyl-H-pyrrol-2-yl)methylene)-5-(8-methyl-2,3-dihydro-1H-pyrido[2,3-b][1,4]oxazin-7-yl)indolin-2-one], the IC50 worked out at 510 pM. As for `Cc1c(-c2cc(F)c3c(c2C)/C(=C/c2ccc[nH]2)C(=O)N3)cnc2c1NCCO2` [Compound C14, (Z)-3-((1H-pyrrol-2-yl)methylene)-7-fluoro-4-methyl-5-(8-methyl-2,3-dihydro-1H-pyrido[2,3-b][1,4]oxazin-7-yl)indolin-2-one], the IC50 came to 290 pM. As for `Cc1ncc(/C=C2\C(=O)Nc3ccc(-c4cnc5c(c4C)NCCO5)cc32)[nH]1` [Compound C15, (Z)-3-((2-methyl-H-imidazol-5-yl)methylene)-5-(8-methyl-2,3-dihydro-1H-pyrido[2,3-b][1,4]oxazin-7-yl)indolin-2-one], the figure is 70 pM. For the molecule `CCN(CC)CCNC(=O)c1c(C)[nH]c(/C=C2\C(=O)Nc3ccc(-c4cnc5c(c4C)NCCO5)cc32)c1C` [Compound C16, (Z)—N-(2-(diethylamino)ethyl)-2,4-dimethyl-5-((5-(8-methyl-2,3-dihydro-1H-pyrido[2,3-b][1,4]oxazin-7-yl)-2-oxoindolin-3-ylidene)methyl)-1H-pyrrole-3-carboxamide], the IC50 amounted to 50 pM. Regarding `Cc1ccc(/C=C2\C(=O)Nc3ccc(-c4cnc5c(c4C)NCCO5)cc32)[nH]1` [Compound C17, (Z)-3-((5-methyl-H-pyrrol-2-yl)methylene)-5-(8-methyl-2,3-dihydro-1H-pyrido[2,3-b][1,4]oxazin-7-yl)indolin-2-one], the IC50 worked out at 50 pM. Take `Cc1c(-c2ccc3c(c2)/C(=C/c2ccns2)C(=O)N3)cnc2c1NCCO2` [Compound C18, (Z)-3-(isothiazol-5-ylmethylene)-5-(8-methyl-2,3-dihydro-1H-pyrido[2,3-b][1,4]oxazin-7-yl)indolin-2-one]: the IC50 was determined as 3020 pM.

Regarding `Cc1c(-c2ccc3c(c2)/C(=C/c2cc(Br)c[nH]2)C(=O)N3)cnc2c1NCCO2` [Compound C20, (Z)-3-((4-bromo-1H-pyrrol-2-yl)methylene)-5-(8-methyl-2,3-dihydro-1H-pyrido[2,3-b][1,4]oxazin-7-yl)indolin-2-one], the IC50 stood at 160 pM. Regarding `Cc1c(-c2ccc3c(c2)/C(=C/c2cc(C#N)c[nH]2)C(=O)N3)cnc2c1NCCO2` [Compound C21, (Z)-5-((5-(8-methyl-2,3-dihydro-1H-pyrido[2,3-b][1,4]oxazin-7-yl)-2-oxoindolin-3-ylidene)methyl)-1H-pyrrole-3-carbonitrile], the IC50 was found to be 70 pM.
